Reference: US9879008B2, “2,3,4,6-tetra-substituted benzene-1,5-diamine derivatives, preparation method therefor and medicinal use thereof” (SHANGHAI HAIYAN PHARMACEUTICAL TECHNOLOGY CO., LTD., priority 2014, dated 2018)

Assays:
wild-type EGFR kinase = target: T1, wild-type EGFR kinase (Homo sapiens, UniProt P00533); assay: z-lyte inhibition test against wild-type EGFR kinase; type: biochemical; details: 10 μM ATP, read-out: EGFR WT (IC50/nM);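 further: reaction volume 10 µL holding 0.8 ng/µL enzyme and 2 µM Tyr04 substrate, with DMSO at 2% once compounds are present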
T1 construct: purchased Invitrogen PV3872

H1975 cell = assay: MTT cytostatic activity, H1975 cell; type: cell-based; details: MTT; for IC50: Homo sapiens, NCI-H1975, 72 h, read-out: H1975 cell (IC50/nM); for Selective inhibitory activity against cells [IC50(A431 cell)/IC50(H1975 cell)]: ratio of cell IC50 values;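 on all read-outs here: cells in 96-well plates exposed to compound for 72 h, then given MTT for a further 4 h at 37 °C under 5% CO2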
A431 cell = assay: MTT cytostatic activity, A431 cell; type: cell-based; details: Homo sapiens, A-431; MTT, 72 h; read-out: A431 cell (IC50/nM)
NIH3T3 cell = assay: MTT cytotoxicity against NIH3T3 cells; type: cell-based; details: Mus musculus, NIH3T3; cytotoxicity, MTT, 72 h; read-out: MTT assay against NIH3T3 cell (IC50/nM)
A431 cells = assay: ELISA assay for cell activity, EGF-treated A431 cells; type: cell-based; details: Homo sapiens, A-431, compound 1 h, then EGF 45 min;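 further: Serum-starved A431 cells, ELISA on lysates read as OD450 minus OD570, inhibition scaled between EGF-stimulated wells (0%) and unstimulated cell control (100%), DMSO 0.5% final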
H1975 cells = assay: ELISA assay for cell activity of EGFR T790M inhibitor, H1975 cells; details: for Selective inhibitory activities against cell [IC50(A431 cell)/IC50(H1975 cell)]: ELISA, ratio of cell IC50 values; for IC50: Homo sapiens, NCI-H1975, 1 h, read-out: H1975 cell (IC50/nM)

T1 sequence (P00533 25-1210): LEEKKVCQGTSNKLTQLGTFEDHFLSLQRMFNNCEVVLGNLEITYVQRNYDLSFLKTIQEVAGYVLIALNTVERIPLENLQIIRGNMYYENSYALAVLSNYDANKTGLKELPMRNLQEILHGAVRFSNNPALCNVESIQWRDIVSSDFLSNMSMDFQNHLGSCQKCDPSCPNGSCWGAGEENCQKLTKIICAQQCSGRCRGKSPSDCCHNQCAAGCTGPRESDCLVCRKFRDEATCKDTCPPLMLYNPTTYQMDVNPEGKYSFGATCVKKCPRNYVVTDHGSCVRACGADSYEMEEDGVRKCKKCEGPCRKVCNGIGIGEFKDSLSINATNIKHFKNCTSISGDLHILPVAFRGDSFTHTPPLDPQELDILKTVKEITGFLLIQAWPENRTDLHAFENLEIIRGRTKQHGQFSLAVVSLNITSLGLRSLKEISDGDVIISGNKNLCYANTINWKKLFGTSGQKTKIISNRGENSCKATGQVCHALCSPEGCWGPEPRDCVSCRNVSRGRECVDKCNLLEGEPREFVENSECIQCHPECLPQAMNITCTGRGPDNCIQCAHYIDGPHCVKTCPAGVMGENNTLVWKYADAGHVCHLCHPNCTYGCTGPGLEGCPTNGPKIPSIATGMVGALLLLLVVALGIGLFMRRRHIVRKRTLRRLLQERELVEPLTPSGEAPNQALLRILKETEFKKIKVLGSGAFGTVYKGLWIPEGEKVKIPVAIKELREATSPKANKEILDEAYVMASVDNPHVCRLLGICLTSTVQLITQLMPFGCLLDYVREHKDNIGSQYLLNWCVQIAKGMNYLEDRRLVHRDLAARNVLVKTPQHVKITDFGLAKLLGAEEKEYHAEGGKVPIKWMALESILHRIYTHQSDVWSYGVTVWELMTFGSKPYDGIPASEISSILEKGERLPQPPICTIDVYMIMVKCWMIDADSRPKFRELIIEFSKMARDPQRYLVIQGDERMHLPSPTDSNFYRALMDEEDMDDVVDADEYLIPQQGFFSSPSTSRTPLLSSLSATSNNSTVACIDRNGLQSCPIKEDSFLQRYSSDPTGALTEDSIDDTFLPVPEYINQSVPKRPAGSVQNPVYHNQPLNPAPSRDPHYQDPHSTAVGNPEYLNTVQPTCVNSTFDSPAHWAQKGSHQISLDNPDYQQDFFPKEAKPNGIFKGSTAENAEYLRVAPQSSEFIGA

| SMILES | IC50 (wild-type EGFR kinase) [nM] | IC50 (H1975 cell) [nM] | Selective inhibitory activity against cells [IC50(A431 cell)/IC50(H1975 cell)] (H1975 cell) | IC50 (A431 cell) [nM] | IC50 (NIH3T3 cell) [nM] | IC50 (A431 cells) [nM] | Selective inhibitory activities against cell [IC50(A431 cell)/IC50(H1975 cell)] (H1975 cells) | IC50 (H1975 cells) [nM] |
| --- | --- | --- | --- | --- | --- | --- | --- | --- |
| C=CC(=O)Nc1cc(Nc2ncc(Cl)c(OC3CCCN(S(C)(=O)=O)CC3)n2)c(OC)cc1N1CCC(N(C)C)CC1 (centres unmarked) [Compound J-37] | 22 | 27 | 79.4 | 2140 | > 10000 | 919 | 26 | 36 |
| C=CC(=O)Nc1cc(Nc2ncc(C(F)(F)F)c(OC3CN(S(C)(=O)=O)C3)n2)c(OC)cc1N1CCC(N(C)C)CC1 [Compound J-31] | 27 | 4 | 429 | 1720 | > 3000 | 419 | 84 | 5 |
| C=CC(=O)Nc1cc(Nc2ncc(Cl)c(OC3CN(S(C)(=O)=O)C3)n2)c(OC)cc1N(C)CCN(C)C [Compound J-11, N-(5-(5-chloro-4-(1-(methylsulfonyl)azetidine-3-oxy)pyrimidine-2amino)-2-((2-(dimethylamino)ethyl)(methyl)amino)-4-methoxyphenyl)acrylamide] | 12 | 14 | 113 | 1580 | > 10000 | 379 | 10 | 38 |
| C=CC(=O)Nc1cc(Nc2ncc(Cl)c(OC3CN(C(C)=O)C3)n2)c(OC)cc1N(C)CCN(C)C [Compound J-28] | 49 | 11 | 286.3 | 3150 | > 10000 | 649 | 32.5 | 20 |
| C=CC(=O)Nc1cc(Nc2ncc(Cl)c(OC3CCN(S(C)(=O)=O)CC3)n2)c(OC)cc1N1CCC(N(C)C)CC1 [Compound J-39] | 39 | 72 | 60 | 4300 | > 10000 | 1320 | 11 | 123 |
| C=CC(=O)Nc1cc(Nc2ncc(Cl)c(O[C@H]3CCN(C(C)=O)C3)n2)c(OC)cc1N1CCC(N(C)C)CC1 [Compound J-48] | 610 | 56 | 82.4 | 4620 | > 10000 | 3790 | 37.1 | 102 |
| C=CC(=O)Nc1cc(Nc2ncc(C(F)(F)F)c(SC3CN(S(C)(=O)=O)C3)n2)c(OC)cc1N1CCC(N(C)C)CC1 [Compound J-59] | 23 | < 5 | >390 | 1950 | 9630 | 757 | 126 | 6 |
| C=CC(=O)Nc1cc(Nc2ncc(F)c(OC3CN(C(C)=O)C3)n2)c(OC)cc1N1CCC(N(C)C)CC1 [Compound J-30] | 95 | 121 | 50 | 6010 | > 10000 | 1910 | 17 | 113 |
| C=CC(=O)Nc1cc(Nc2ncc(Cl)c(OC3CCN(C(C)=O)CC3)n2)c(OC)cc1N1CCC(N(C)C)CC1 [Compound J-38] | 170 | 66 | 71 | 4670 | > 10000 | 4490 | 60 | 75 |
| C=CC(=O)Nc1cc(Nc2ncc(Cl)c(OC3CCCN(S(C)(=O)=O)CC3)n2)c(OC)cc1N(C)CCN(C)C (centres unmarked) [Compound J-1, N-(5-(5-chloro-4-(1-(methylsulfonyl)azacycloheptane-4-oxy)pyrimidine-2-amino)-2-((2-(dimethylamino)ethyl)(methyl)amino)-4-methoxylphenyl)acrylamide] | 20 | 22 | 52 | 1140 | > 10000 | 383 | 29.5 | 13 |
| C=CC(=O)Nc1cc(Nc2ncc(Cl)c(OC3CN(C(C)=O)C3)n2)c(OC)cc1N1CCC(N(C)C)CC1 [Compound J-27] | 114 | 57 | 53.6 | 3050 | 9830 | 2550 | 85 | 30 |
| C=CC(=O)Nc1cc(Nc2ncc(Cl)c(O[C@@H]3CCN(C(C)=O)C3)n2)c(OC)cc1N1CCC(N(C)C)CC1 [Compound J-47] | 227 | 46 | 160.5 | 7380 | > 10000 | 2740 | 28.2 | 97 |
| C=CC(=O)Nc1cc(Nc2ncc(F)c(SC3CN(S(C)(=O)=O)C3)n2)c(OC)cc1N1CCC(N(C)C)CC1 [Compound J-57] | 4 | 7 | 76.3 | 534 | > 10000 | 49 | 4.5 | 11 |
| C=CC(=O)Nc1cc(Nc2nccc(OC3CN(c4cnc5c(ccn5C)c4)C3)n2)c(OC)cc1N1CCC(N(C)C)CC1 [Compound J-18] | 30 | 184 | 16.1 | 2960 | – | 1100 | 4.3 | 256 |
| C=CC(=O)Nc1cc(Nc2ncc(F)c(SC3CN(C(C)=O)C3)n2)c(OC)cc1N1CCC(N(C)C)CC1 [Compound J-58] | 69 | 23 | 98.3 | 2260 | > 10000 | 991 | 41.3 | 24 |
| C=CC(=O)Nc1cc(Nc2ncc(Cl)c(O[C@H]3CCN(S(C)(=O)=O)C3)n2)c(OC)cc1N1CCC(N(C)C)CC1 [Compound J-46] | 49 | 17 | 171.8 | 2920 | > 10000 | 832 | 64 | 13 |
| C=CC(=O)Nc1cc(Nc2ncc(Cl)c(OC3CN(S(C)(=O)=O)C3)n2)c(OC)cc1N1CCN(C)CC1 [Compound J-70, N-(5-(5-chloro-4-(1-(methylsulfonyl)azetidine-3-oxy)pyrimidine-2-amino)-4-methoxy-2-(4-methylpiperazine-1-yl)phenyl)acrylamide] | 14 | 6 | 162 | 971 | > 10000 | 460 | 35.4 | 13 |
| C=CC(=O)Nc1cc(Nc2nccc(OC3CN(S(=O)(=O)c4ccccc4)C3)n2)c(OC)cc1N(C)CCN(C)C [Compound J-7, N-(2-((2-(dimethylamino)ethyl)(methyl)amino)-4-methoxy-5-(4-(1-(phenylsulfonyl)azetidine-3-oxy)pyrimidine-2-amino)phenyl)acrylamide] | – | 66 | 15 | 989 | > 10000 | 234 | 3.3 | 70 |
| C=CC(=O)Nc1cc(Nc2ncc(Cl)c(O[C@@H]3CCN(S(C)(=O)=O)C3)n2)c(OC)cc1N1CCC(N(C)C)CC1 [Compound J-45, (R)—N-(5-(5-chloro-4-(1-(methylsulfonyl)pyrrolidine-3-oxy)pyrimidine-2-amino)-2-(4-(dimethylamino)piperidine-1-yl)-4-methoxyphenyl)acrylamide] | 41 | 19 | 144.1 | 2740 | 8200 | 784 | 44 | 18 |
| C=CC(=O)Nc1cc(Nc2nccc(C3CN(c4cnc5c(cnn5C)c4)C3)n2)c(OC)cc1N(C)CCN(C)C [compound 2, reference compound] | – | 359 | 14.1 | 5060 | – | 1760 | 1.3 | 1340 |
| C=CC(=O)Nc1cc(Nc2ncc(Cl)c(OC3CN(S(C)(=O)=O)C3)n2)c(OC)cc1OCCN(C)C [Compound J-71] | 23 | 21 | 86 | 1800 | > 10000 | 539 | 17 | 32 |
